Test results taken from ChEMBL document CHEMBL5346969 (J Med Chem, 2023).
Each block holds one compound with its values, some of them ahead of it. Calls of active or inactive are those of the source. No cut-off for these calls is given here.

Legend:
MDA-MB-231 [1] = test: Induction of ferroptosis in human MDA-MB-231 cells assessed as increase in intracellular Fe2+ level at 5 to 20 nM incubated for 8 hrs by FerroOrange staining based confocal laser microscopy; assay type: functional, cell-based; settings: dose 5-20 nM
[2] = Metabolic stability in rat plasma at 1 uM and measured upto 24 hrs by LC-MS/MS analysis; assay type: ADME, cell-free
MDA-MB-231 [3] = test: Antitumor activity against human MDA-MB-231 cells xenografted in immunodeficient BALB/c mouse assessed as tumor growth inhibition at 5 mg/kg,ip for 21 days consecutively every day; assay type: functional; settings: MDA-MB-231, 504 h, time 21 day, read-out: TGI
BT-549 [4] = test: Antiproliferative activity against human BT-549 cells assessed as inhibition of cell viability incubated for 72 hrs by MTT assay; assay type: functional, cell-based; settings: BT-549, 72 h
MDA-MB-231 [5] = test: Induction of ferroptosis in human MDA-MB-231 cells assessed as cell viability at 1 uM incubated for 72 hrs in presence of necrosis inhibitor, necrostatin-1 by MTT assay; assay type: functional, cell-based
BT-549 [6] = test: Antiproliferative activity against human BT-549 cells assessed as inhibition of cell viability at 1 uM incubated for 72 hrs by MTT assay; assay type: functional, cell-based
[7] = Toxicity in immunodeficient BALB/c mouse xenografted with human MDA-MB-231 cells assessed as body weight change at 5 to 20 mg/kg, ip for 21 days; assay type: organism-based; settings: in vivo, 504 h, dose 5-20 mg/kg, time 21 day
MDA-MB-231 [8] = test: Induction of ferroptosis in human MDA-MB-231 cells assessed as induction of lipid peroxidase accumulation at 5 to 20 nM incubated for 8 hrs by C11-BODIPY-581/591 staining based flow cytometry analysis; assay type: functional, cell-based; settings: dose 5-20 nM
MDA-MB-231 [9] = test: Induction of ferroptosis in human MDA-MB-231 cells assessed as increase in intracellular lipid peroxidase by measuring MDA content at 5 to 20 nM incubated for 8 hrs by C11-BODIPY-581/591 staining based flow cytometry analysis; assay type: functional, cell-based; settings: dose 5-20 nM
[10] = Toxicity in immunodeficient BALB/c mouse assessed as change in ALT level at 20 mg/kg, ip for 14 days by biochemical analysis; assay type: organism-based; settings: in vivo, 336 h, time 14 day
U-87 MG = test: Antiproliferative activity against human U87 cells assessed as inhibition of cell viability at 1 uM incubated for 72 hrs by MTT assay; assay type: functional, cell-based; settings: U-87MG ATCC
MDA-MB-231 [11] = test: Induction of ferroptosis in human MDA-MB-231 cells with assessed as change in FTH1 protein expression level at 5 to 20 nM incubated for 8 hrs in presence of ferroptosis inhibitor, ferrostatin-1 by Western blot analysis; assay type: functional, cell-based; settings: dose 5-20 nM
MDA-MB-468 = test: Antiproliferative activity against human MDA-MB-468 cells assessed as inhibition of cell viability incubated for 72 hrs by CCK-8 assay; assay type: functional, cell-based; settings: MDA-MB-468, 72 h
MDA-MB-231 [12] = test: Induction of ferroptosis in human MDA-MB-231 cells with assessed as change in GPX4 mRNA expression level at 5 to 20 nM incubated for 8 hrs by qRT-PCR analysis; assay type: functional, cell-based; settings: dose 5-20 nM
MDA-MB-231 [13] = test: Induction of ferroptosis-mediated morphological changes in human MDA-MB-231 cells assessed as ruptured mitochondria at 20 nM incubated for 6 hrs by TEM analysis; assay type: functional, cell-based
MDA-MB-231 [14] = test: Induction of ferroptosis in human MDA-MB-231 cells with assessed as decrease in GPX4 protein expression level at 5 to 20 nM incubated for 8 hrs by Western blot analysis; assay type: functional, cell-based; settings: dose 5-20 nM
[15] = biological target: T1, Phospholipid hydroperoxide glutathione peroxidase GPX4 (Homo sapiens, UniProt P36969); test: Inhibition of GPX4 (unknown origin) incubated for 1 hrs in presence of glutathione and glutathione reductase by microplate reader analysis
T1 sequence (P36969 whole entry): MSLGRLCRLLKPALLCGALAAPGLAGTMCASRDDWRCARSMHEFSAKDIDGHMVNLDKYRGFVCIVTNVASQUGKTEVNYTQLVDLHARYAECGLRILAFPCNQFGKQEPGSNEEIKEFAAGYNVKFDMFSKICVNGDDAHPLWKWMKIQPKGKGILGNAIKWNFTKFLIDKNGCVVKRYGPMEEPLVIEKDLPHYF

MDA-MB-231 [16] = test: Induction of ferroptosis in human MDA-MB-231 cells assessed as cell viability incubated for 72 hrs in presence of apoptosis inhibitor, Z-VAD-FMK by MTT assay; assay type: functional, cell-based; settings: MDA-MB-231, 72 h
MDA-MB-231 [17] = test: Induction of ferroptosis-mediated morphological changes in human MDA-MB-231 cells assessed as increased membrane density at 20 nM incubated for 6 hrs by TEM analysis; assay type: functional, cell-based
MDA-MB-231 [18] = test: Antitumor activity against human MDA-MB-231 cells xenografted in immunodeficient BALB/c mouse assessed as tumor growth inhibition at 10 mg/kg,ip for 21 days consecutively every day; assay type: functional; settings: MDA-MB-231, 504 h, time 21 day, read-out: TGI
L02 = test: Cytotoxicity against human L02 cells assessed as inhibition of cell viability at 1 uM incubated for 72 hrs by MTT assay; assay type: toxicity, cell-based; settings: l02, 72 h
MDA-MB-231 [19] = test: Antitumor activity against human MDA-MB-231 cells xenografted in immunodeficient BALB/c mouse assessed as inhibition of tumor cell proliferation at 20 mg/kg,ip for 21 days consecutively every day by Ki67 staining based immunohistochemical analysis; assay type: functional, organism-based; settings: time 21.0 day
K562 = test: Antiproliferative activity against human K562 cells assessed as inhibition of cell viability at 1 uM incubated for 72 hrs by MTT assay; assay type: functional, cell-based
MDA-MB-231 [20] = test: Inhibition of colony formation in human MDA-MB-231 cells at 5 to 20 nM incubated for 14 days by crystal violet staining based assay; assay type: functional, cell-based; settings: dose 5-20 nM, time 14.0 day
[21] = Toxicity in immunodeficient BALB/c mouse assessed as change in CREA level at 20 mg/kg, ip for 14 days by biochemical analysis; assay type: organism-based; settings: in vivo, 336 h, time 14 day
[22] = Metabolic stability in human liver microsomes assessed as half life at 1 uM incubated upto 60 mins in presence of NADPH by LC-MS/MS analysis; assay type: ADME, Microsome
[23] = Selectivity ratio, ratio of IC50 for Induction of ferroptosis in human MDA-MB-231 cells assessed as reduction in cell viability in presence of ferroptosis inhibitor, ferrostatin-1 to IC50 for antiproliferative activity against human MDA-MB-231 cells; assay type: functional
MDA-MB-231 [24] = test: Induction of ferroptosis in human MDA-MB-231 cells with assessed as decrease in intracellular GSH level at 20 nM incubated for 8 hrs by colorimetric assay; assay type: functional, cell-based
MDA-MB-231 [25] = test: Induction of ferroptosis-mediated morphological changes in human MDA-MB-231 cells assessed as smaller mitochondrial volume at 20 nM incubated for 6 hrs by TEM analysis; assay type: functional, cell-based
MDA-MB-231 [26] = test: Induction of ferroptosis in human MDA-MB-231 cells assessed as cell viability at 1 uM incubated for 72 hrs in presence of deferoxamine by MTT assay; assay type: functional, cell-based
MDA-MB-231 [27] = test: Induction of ferroptosis in human MDA-MB-231 cells with assessed as decrease in xCT protein expression level at 5 to 20 nM incubated for 8 hrs by Western blot analysis; assay type: functional, cell-based; settings: dose 5-20 nM
MDA-MB-231 [28] = test: Antitumor activity against human MDA-MB-231 cells xenografted in immunodeficient BALB/c mouse assessed as tumor growth inhibition at 20 mg/kg,ip for 21 days consecutively every day; assay type: functional; settings: MDA-MB-231, 504 h, time 21 day, read-out: TGI
[29] = Toxicity in immunodeficient BALB/c mouse assessed as change in AST level at 20 mg/kg, ip for 14 days by biochemical analysis; assay type: organism-based; settings: in vivo, 336 h, time 14 day

SMILES: COc1cc(N(C(=O)CCl)c2ccc3c(c2)OCCO3)cc(OC)c1F
Activity (MDA-MB-231 [1]): Active | Stability [2]: Stable | inhibition in vivo at 5 mg/kg (MDA-MB-231 [3]): 50.4% | IC50 (BT-549 [4]): 75 nM | Activity (MDA-MB-231 [5]): inactive | Activity (BT-549 [6]): Active | Activity [7]: Non-Toxic | Activity (MDA-MB-231 [8]): Dose-Dependent Effect | Activity (MDA-MB-231 [9]): Dose-Dependent Effect | Activity [10]: Toxic | Activity (U-87 MG): inactive | Activity (MDA-MB-231 [11]): inactive | IC50 (MDA-MB-468): 10 nM | Activity (MDA-MB-231 [12]): inactive | Activity (MDA-MB-231 [13]): Active | Activity (MDA-MB-231 [14]): Active | IC50 [15]: 120 nM | IC50 (MDA-MB-231 [16]): 31 nM | Activity (MDA-MB-231 [17]): Active | inhibition in vivo at 10 mg/kg (MDA-MB-231 [18]): 73.1% | Activity (L02): Non-Toxic | Activity (MDA-MB-231 [19]): Active | Activity (K562): inactive | inhibition (MDA-MB-231 [20]): Dose-Dependent Effect | Activity [21]: Toxic | half-life at 1 µM [22]: 3.34 min | Ratio IC50 [23]: 249.5 | Activity (MDA-MB-231 [24]): Active | Activity (MDA-MB-231 [25]): Active | Activity (MDA-MB-231 [26]): Active | Activity (MDA-MB-231 [27]): inactive | inhibition in vivo at 20 mg/kg (MDA-MB-231 [28]): 81% | Activity [29]: Toxic

Stability [2]: Stable | IC50 (BT-549 [4]): 34 nM | IC50 (MDA-MB-468): 12 nM | IC50 [15]: 130 nM | IC50 (MDA-MB-231 [16]): 30 nM | half-life at 1 µM [22]: 0.79 min
SMILES: COc1cc(N(C(=O)CBr)c2ccc3c(c2)OCCO3)cc(OC)c1F
Activity (MDA-MB-231 [1]): Active | inhibition in vivo at 5 mg/kg (MDA-MB-231 [3]): 18.9% | Activity (MDA-MB-231 [5]): inactive | Activity (BT-549 [6]): Active | Activity [7]: Non-Toxic | Activity (MDA-MB-231 [8]): Dose-Dependent Effect | Activity (MDA-MB-231 [9]): Dose-Dependent Effect | Activity [10]: Toxic | Activity (U-87 MG): inactive | Activity (MDA-MB-231 [11]): inactive | Activity (MDA-MB-231 [12]): inactive | Activity (MDA-MB-231 [13]): Active | Activity (MDA-MB-231 [14]): Active | Activity (MDA-MB-231 [17]): Active | inhibition in vivo at 10 mg/kg (MDA-MB-231 [18]): 47.9% | Activity (L02): Non-Toxic | Activity (MDA-MB-231 [19]): Active | Activity (K562): inactive | inhibition (MDA-MB-231 [20]): Dose-Dependent Effect | Activity [21]: Toxic | Ratio IC50 [23]: 218.8 | Activity (MDA-MB-231 [24]): Active | Activity (MDA-MB-231 [25]): Active | Activity (MDA-MB-231 [26]): Active | Activity (MDA-MB-231 [27]): inactive | inhibition in vivo at 20 mg/kg (MDA-MB-231 [28]): 71.7% | Activity [29]: Toxic
